Patent US8785482B2, “Cyclohexene benzotriazole derivatives” (Merck Sharp & Dohme Corp., priority 2011, dated 2014)

molecular target: T1, recombinant human mGluR2 (Homo sapiens, UniProt Q14416); assay: FLIPR Ca2+ mobilization assay, potentiation of glutamate response; type: cell-based; settings: CHO dhfr- cells expressing human mGluR2 and Gα16, EC20 glutamate (900 nM)
T1 construct: expressed in transfected cells
Method: Potencies are determined as follows. The compounds of the present invention may be tested in a fluorescence laser imaging plate reader (FLIPR) based assay. This assay is a common functional assay to monitor Ca^2+ mobilization in whole cells expressing recombinant receptor coupled with a promiscuous G-protein. CHO dhfr-cells stably expressing recombinant human mGluR2 and Gα16 loaded with Fluo-4 AM (Invitrogen, Carlsbad Calif.) are treated with varying concentrations of compounds and the Ca^2+ response is monitored on a FLIPR384 (Molecular Devices, Sunnydale Calif.) for agonist activity. The potentiation response is monitored after a subsequent addition of an EC20 concentration of glutamate (900 nM). The maximum calcium response at each concentration of compound for agonism or potentiation are plotted as dose responses curves fitted with a four parameters logistic equation giving EC50 and Hill coefficient using the iterative non linear curve fitting software program.
Such results are indicative of the intrinsic activity of the compounds in use as potentiators of mGluR2 receptor activity.

T1 sequence (Q14416 19-872): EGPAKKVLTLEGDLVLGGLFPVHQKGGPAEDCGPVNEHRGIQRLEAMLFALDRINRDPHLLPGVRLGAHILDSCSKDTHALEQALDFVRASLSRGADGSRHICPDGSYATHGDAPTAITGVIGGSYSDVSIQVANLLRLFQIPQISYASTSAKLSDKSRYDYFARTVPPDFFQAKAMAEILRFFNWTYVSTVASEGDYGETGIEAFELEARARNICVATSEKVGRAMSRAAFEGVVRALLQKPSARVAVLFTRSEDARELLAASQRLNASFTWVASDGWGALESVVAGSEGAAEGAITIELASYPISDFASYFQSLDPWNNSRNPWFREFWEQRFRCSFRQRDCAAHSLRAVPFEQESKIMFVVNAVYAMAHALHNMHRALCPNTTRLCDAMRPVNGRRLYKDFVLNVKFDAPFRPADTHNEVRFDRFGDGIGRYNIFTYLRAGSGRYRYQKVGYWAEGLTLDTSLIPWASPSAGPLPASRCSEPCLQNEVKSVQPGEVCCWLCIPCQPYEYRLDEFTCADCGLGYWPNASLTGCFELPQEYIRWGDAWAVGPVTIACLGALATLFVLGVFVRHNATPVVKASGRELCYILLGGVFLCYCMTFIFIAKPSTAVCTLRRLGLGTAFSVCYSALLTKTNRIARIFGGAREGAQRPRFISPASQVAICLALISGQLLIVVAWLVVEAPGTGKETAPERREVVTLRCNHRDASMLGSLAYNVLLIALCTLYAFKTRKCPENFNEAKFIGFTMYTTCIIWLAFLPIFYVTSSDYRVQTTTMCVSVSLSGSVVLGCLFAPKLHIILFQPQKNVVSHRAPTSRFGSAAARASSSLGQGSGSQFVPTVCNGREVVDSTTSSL

SMILES	EC50 [nM]
COC(=O)C1CC=C(c2ccc3c(nnn3CC3CC3)c2Cl)CC1 (centres unmarked) [Example 1, Methyl 4-[4-chloro-1-(cyclopropylmethyl)-1H-benzotriazol-5-yl]cyclohex-3-ene-1-carboxylate]	373
OCC1CC=C(c2ccc3c(nnn3CC3CC3)c2Cl)CC1 (centres unmarked) [Example 2, {4-[4-Chloro-1-(cyclopropylmethyl)-1H-benzotriazol-5-yl]cyclohex-3-en-1-yl}methanol]	77
CN1C(=O)CN(CC2CC=C(c3ccc4c(nnn4CC4CC4)c3Cl)CC2)C1=O (centres unmarked) [Example 3, 1-({4-[4-Chloro-1-(cyclopropylmethyl)-1H-benzotriazol-5-yl]cyclohex-3-en-1-yl}methyl)-3-methylimidazolidine-2,4-dione]	17
Clc1c(C2=CCCCC2)ccc2c1nnn2CC1CC1 [Example 4, 4-chloro-5-cyclohex-1-en-1-yl-1-(cyclopropylmethyl)-1H-benzotriazole]	947
OC1CC=C(c2ccc3c(nnn3CC3CC3)c2Cl)CC1 (centres unmarked) [Example 5, 4-[4-chloro-1-(cyclopropylmethyl)-1H-benzotriazol-5-yl]cyclohex-3-en-1-ol]	408
N#CC1CC=C(c2ccc3c(nnn3CC3CC3)c2Cl)CC1 (centres unmarked) [Example 6, 4-[4-chloro-1-(cyclopropylmethyl)-1H-benzotriazol-5-yl]cyclohex-3-ene-1-carbonitrile]	701
COC(=O)C1CC=C(c2ccc3c(nnn3CC3CC3)c2C(F)(F)F)CC1 (centres unmarked) [Example 7, Methyl 4-[1-(cyclopropylmethyl)-4-(trifluoromethyl)-1H-benzotriazol-5-yl]cyclohex-3-ene-1-carboxylate]	31
CN1C(=O)CN(CC2CC=C(c3ccc4c(nnn4CC4CC4)c3C(F)(F)F)CC2)C1=O (centres unmarked) [Example 8, 1-({4-[1-(Cyclopropylmethyl)-4-(trifluoromethyl)-1H-benzotriazol-5-yl]cyclohex-3-en-1-yl}methyl)-3-methylimidazolidine-2,4-dione]	15
CN1CC(c2ccc3c(nnn3CC(C)(C)C)c2Br)=CCC1CO (centres unmarked) [Example 9, {5-[4-Bromo-1-(2,2-dimethylpropyl)-1H-benzotriazol-5-yl]-1-methyl-1,2,3,6-tetrahydropyridin-2-yl}methanol]	1560
OCC1CC=C(c2ccc3c(nnn3CC3CC3)c2Br)CC1 (centres unmarked) [Example 10, {4-[4-Bromo-1-(cyclopropylmethyl)-1H-benzotriazol-5-yl]cyclohex-3-en-1-yl}methanol]	52
CN1C(=O)CN(CC2CC=C(c3ccc4c(nnn4CC4CC4)c3Br)CC2)C1=O (centres unmarked) [Example 11, 1-({4-[4-Bromo-1-(cyclopropylmethyl)-1H-benzotriazol-5-yl]cyclohex-3-en-1-yl}methyl)-3-methylimidazolidine-2,4-dione]	9.2
